System: Pyrenophora teres
Assay: activity against net blotch of barley caused by Pyrenophora teres, 1-day-protective application
Assay type: in vivo, Pyrenophora [syn. Drechslera] teres on barley seedlings
Conditions: individual active compound, barley seedlings, assessed after 6 days
Description: The active compounds, separately or jointly, were prepared as a stock solution comprising 0.25% by weight of active compound in acetone or DMSO. 1% by weight of the emulsifier Uniperol® EL (wetting agent having emulsifying and dispersant action based on ethoxylated alkylphenols) was added to this solution, and the mixture was diluted with water to the desired concentration.
Use example—activity against net blotch of barley caused by Pyrenophora teres, 1-day-protective application.
Leaves of pot-grown barley seedlings were sprayed to run-off point with an aqueous suspension having the concentration of active compound stated below. 24 hours after the spray coating had dried on, the test plants were inoculated with an aqueous spore suspension of Pyrenophora [syn. Drechslera] teres, the causative agent of net blotch. The test plants were subsequently placed in a greenhouse at temperatures of between 20 and 24° C. and at 95 to 100% relative atmospheric humidity. After 6 days, the extent of development of the disease was determined visually in % infection of the total leaf area.
The visually determined percentages of infected leaf areas were converted into efficacies in % of the untreated control:
The efficacy (E) is calculated as follows using Abbot's formula: E=(1−α/β).100 α corresponds to the fungal infection of the treated plants in % and β corresponds to the fungal infection of the untreated (control) plants in %
An efficacy of 0 means that the infection level of the treated plants corresponds to that of the untreated control plants; an efficacy of 100 means that the treated plants were not infected.
The expected efficacies of mixtures of active compounds were determined using Colby's formula (Colby, S. R. “Calculating synergistic and antagonistic responses of herbicide combinations”, Weeds, 15, 20-22, 1967) and compared with the observed efficacies.
Colby's formula: E=x+y−x·y/100 • E expected efficacy, expressed in % of the untreated control, when using the mixture of the active compounds A and B at the concentrations a and b • x efficacy, expressed in % of the untreated control, when using the active compound A at the concentration a
y efficacy, expressed in % of the untreated control, when using the active compound B at the concentration b

## CC1CCN(c2c(-c3c(F)cc(F)cc3F)c(Cl)nc3ncnn23)CC1 [I, 5-chloro-7-(4-methylpiperidin-1-yl)-6-(2,4,6-trifluorophenyl)-[1,2,4]triazolo[1,5-a]pyrimidine]
1.25 ppm in the spray liquor
  Efficacy in % of the untreated control: 56 % of the untreated control

## CC(C)NC(=O)N1CC(=O)N(c2cc(Cl)cc(Cl)c2)C1=O [II (iprodione), N-isopropyl-3-(3,5-dichlorophenyl)-2,4-dioxoimidazolidine-1-carboxamide]
0.25 ppm in the spray liquor
  Efficacy in % of the untreated control: 0 % of the untreated control
1.25 ppm in the spray liquor
  Efficacy in % of the untreated control: 0 % of the untreated control
6.25 ppm in the spray liquor
  Efficacy in % of the untreated control: 0 % of the untreated control

From US20070167465A1, “Fungicidal mixtures” (BASF AKTIENGESELLSCHAFT, priority 2004, published 2007)
